Data taken from US20170007554A1, “MEDICINE FOR PREVENTING ISCHEMIC DISEASES” (JX NIPPON OIL & ENERGY CORPORATION, priority 2014, published 2017).

Test system: RGC-5 cells
Test: Cytoprotective action under OGD stress (dead cell rate, nuclear staining)
Assay type: cell-based
Details: no OGD stress
Procedure: The RGC-5 cell line is a cell line from rat retinal ganglion cells and used for in vitro tests for cell damage evaluation. The RGC-5 cell line can be cultured in accordance with the method disclosed in NAKAJIMA Y. et al., Zeaxanthin, a Retinal Carotenoid, Protects Retinal Cells against Oxidative Stress, Current Eye Research, 2009, Vol. 34, pp. 311-318.
Here, the expression OGD stress refers to a state in which the supply of oxygen and glucose is restricted.
RGC-5 cells were added at a concentration of 1×10^3 cells/well to a DMEM medium containing glucose […] that was concentrated at 4.5 times the general concentration and fetal bovine serum (FBS: 10%) of Oseanian origin that was concentrated at 10 times the general concentration, followed by culture for 24 hours. […]
Then, the mixture was washed twice with FBS-free base medium, followed by culture in DMEM medium containing high-concentration glucose […] and general-concentration FBS (1%) for 18 hours. The dead cell rate and the state of reactive oxygen species (ROS) generation were determined via nuclear staining. […] Meanwhile, the state of reactive oxygen species (ROS) generation was determined in accordance with the method disclosed in NAKAJIMA Y. et al., Zeaxanthin, a Retinal Carotenoid, Protects Retinal Cells against Oxidative Stress, Current Eye Research, 2009, Vol. 34, pp. 311-318. […]

CC1=NN(c2ccccc2)C(=O)C1 [Edaravone]
cell death in the absence of OGD stress: did not cause cell death
